Reference: patent publication US9028845B2, “Chimeric immunomodulatory compounds and methods of using the same-IV” (Dynavax Technologies Corporation, priority 2001, dated 2015)

Experiments:
human PBMCs = assay: Human PBMC cytokine response assay (IFN-γ and IFN-α in cell-free medium by ELISA), with or without cPLGA; type: cell-based;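 for IFN-α (pg/ml) mean: 20 µg/mL compound for 24 hours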;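 for IFN-γ (pg/ml) mean: 20 µg/mL compound for 24 hours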
CD19+ B cells = assay: Human B cell proliferation assay (3H-thymidine incorporation); conditions: B cells, 2 μg/ml, Experiment B
mouse splenocytes = assay: Mouse splenocyte cytokine secretion (IL-6, IL-12, IFN by ELISA); type: cell-based, BALB/c mice; parameters: IFN: unit not given beside the values; conditions: 24 h
Protocol: Polynucleotides and chimeric compounds were tested for immunostimulatory activity on mouse splenocytes. Immunostimulation was assessed by measurement of cytokine secretion into the culture media. Cytokine levels in the culture supernatant were determined by enzyme-linked immunosorbent assay (ELISA) tests.
Cells were isolated and prepared using standard techniques. Spleens of 8 to 20 week-old BALB/c mice were harvested and the splenocytes isolated using standard teasing and treatment with ACK lysing buffer from BioWhittaker, Inc. Four spleens were pooled in this experiment. Isolated cells were washed in RPMI 1640 media supplemented with 2% heat-inactivated fetal calf serum (FCS), 50 μM 2-mercaptoethanol, 1% penicillin-streptomycin, and 2 mM L-glutamine and resuspended at approximately […] in 10% FCS/RPMI (RPMI 1640 media with 10% heat-inactivated FCS, 50 μM 2-mercaptoethanol, 1% penicillin-streptomycin, and 2 mM L-glutamine).
Cell cultures were set up in triplicate with approximately 7×10^5 cells/well in a 96-well flat microtiter plate in 100 μl 10% FCS/RPMI with the cells allowed to rest for at lest 1 hour after plating. The indicated test compounds were incubated (at the indicated concentrations) for 24 hours at 37° C. Cell supernatants were harvested and frozen at −80° C. Cytokine production by the cells was determined by ELISAs, as shown in 19.

[1] = Donor 5, 20 μg/ml (mixtures: 20 μg/ml total), 24 h
[2] = Donor 6, 20 μg/ml (mixtures: 20 μg/ml total), 24 h
[3] = Table 25, mean of donors 28250-28253
[4] = donor 28066, 20 ug/ml, 24 h, + PLGA = premixed with 100 μg/ml cPLGA
[5] = donor 28067, 20 ug/ml, 24 h, + PLGA = premixed with 100 μg/ml cPLGA
[6] = donor 28068, 20 ug/ml, 24 h, + PLGA = premixed with 100 μg/ml cPLGA
[7] = mean of Donors 1-2, 20 μg/ml, 24 h
[8] = mean of Donors 5-6, 20 μg/ml (mixtures: 20 μg/ml total), 24 h
[9] = mean of Donors 7-8, 20 μg/ml, 24 h
[10] = mean of donors 28065-28068, 20 ug/ml, 24 h, + PLGA = premixed with 100 μg/ml cPLGA

## 5′-TCGTCG-3′-HEG-5′-ACGTTCG-3′-HEG-5′-AGATGAT-3′ [Compound C-10]
Human PBMCs; Donor 1, 20 μg/ml, 24 h
  IFN-α (pg/ml) Donor 1: 1662 pg/mL
  IFN-γ (pg/ml) Donor 1: 1595 pg/mL
Human PBMCs; Donor 2, 20 μg/ml, 24 h
  IFN-α (pg/ml) Donor 2: 50 pg/mL
  IFN-γ (pg/ml) Donor 2: 952 pg/mL
Human PBMCs; [1]
  IFN-α (pg/ml) Donor 5: 91 pg/mL
  IFN-γ (pg/ml) Donor 5: 102 pg/mL
Human PBMCs; [2]
  IFN-α (pg/ml) Donor 6: 1700 pg/mL
  IFN-γ (pg/ml) Donor 6: 806 pg/mL
Human PBMCs; Donor 7, 20 μg/ml, 24 h
  IFN-α (pg/ml) Donor 7: 46 pg/mL
  IFN-γ (pg/ml) Donor 7: 23 pg/mL
Human PBMCs; Donor 8, 20 μg/ml, 24 h
  IFN-α (pg/ml) Donor 8: 539 pg/mL
  IFN-γ (pg/ml) Donor 8: 198 pg/mL
Human PBMCs; Table 9, donor 28089
  IFN-α: 17 pg/mL
  IFN-γ: 35 pg/mL
Human PBMCs; Table 9, donor 28090
  IFN-α: 61 pg/mL
  IFN-γ: 44 pg/mL
Human PBMCs; Table 9, donor 28098
  IFN-α: 187 pg/mL
  IFN-γ: 174 pg/mL
Human PBMCs; Table 9, donor 28099
  IFN-α: 304 pg/mL
  IFN-γ: 140 pg/mL
Human PBMCs; Table 9, mean of donors
  IFN-α mean: 142 pg/mL
  IFN-γ mean: 98 pg/mL
Human PBMCs; Table 25, donor 28250
  IFN-a: 16 pg/mL
Human PBMCs; Table 25, donor 28250, polynucleotides/spacers at amounts equivalent to the CIC, spacers alone 9 uM
  IFN-g: 337 pg/mL
Human PBMCs; Table 25, donor 28251
  IFN-a: 23 pg/mL
  IFN-g: 163 pg/mL
Human PBMCs; Table 25, donor 28252
  IFN-a: 25 pg/mL
  IFN-g: 776 pg/mL
Human PBMCs; Table 25, donor 28253
  IFN-a: 124 pg/mL
  IFN-g: 898 pg/mL
Human PBMCs; [3]
  IFN-a mean: 47 pg/mL
  IFN-g mean: 544 pg/mL
Human PBMCs; donor 28065 (high background), 20 ug/ml, 24 h, + PLGA = premixed with 100 μg/ml cPLGA, 1000 = outside assay limits
  IFN-γ (pg/ml) 28065: 1000 pg/mL
Human PBMCs; donor 28065, 20 ug/ml, 24 h, + PLGA = premixed with 100 μg/ml cPLGA
  IFN-α (pg/ml) 28065: 116 pg/mL
Human PBMCs; [4]
  IFN-α (pg/ml) 28066: 6 pg/mL
  IFN-γ (pg/ml) 28066: 9 pg/mL
Human PBMCs; [5]
  IFN-α (pg/ml) 28067: 107 pg/mL
  IFN-γ (pg/ml) 28067: 51 pg/mL
Human PBMCs; [6]
  IFN-α (pg/ml) 28068: 340 pg/mL
  IFN-γ (pg/ml) 28068: 559 pg/mL
Human PBMCs; [7]
  IFN-α (pg/ml) mean: 856 pg/mL
  IFN-γ (pg/ml) mean: 1273 pg/mL
Human PBMCs; [8]
  IFN-α (pg/ml) mean: 896 pg/mL
  IFN-γ (pg/ml) mean: 454 pg/mL
Human PBMCs; [9]
  IFN-α (pg/ml) mean: 293 pg/mL
  IFN-γ (pg/ml) mean: 111 pg/mL
Human PBMCs; [10]
  IFN-α (pg/ml) mean: 142 pg/mL
  IFN-γ (pg/ml) mean: 405 pg/mL
Human PBMCs; used alone (no cPLGA)
  immunomodulatory activity (IFN-γ / IFN-α secretion), in words: did have immunomodulatory activity
CD19+ B cells; donor 121
  cpm1: 15142 cpm
  cpm2: 14136 cpm
  cpm3: 16158 cpm
CD19+ B cells; donor 121 mean
  mean cpm: 15145 cpm
CD19+ B cells; donor 194
  cpm1: 7480 cpm
  cpm2: 5458 cpm
  cpm3: 5943 cpm
CD19+ B cells; donor 194 mean
  mean cpm: 6294 cpm
CD19+ B cells; mean of donors 121 and 194
  mean of both: 10720 cpm
Mouse splenocytes; dose 0.1 μg/ml
  IFN: 9
  IL-6: 9
  IL-12: 122
Mouse splenocytes; dose 1.0 μg/ml
  IFN: 104
  IL-6: 1761
  IL-12: 1738
Mouse splenocytes; dose 5.0 μg/ml
  IFN: 199
  IL-6: 3342
  IL-12: 2329
